PubChem BioAssay AID2060508 (Molecular Pharmacology Branch, DTP, NCI, 2025)
pIC50: −log10 of the molar value.

Tested on: 454973-116-R2-J3-PDC spheroids, viability, % test/control
Test: Anticancer human tumor 454973-116-R2-J3-PDC patient-derived pancreatic carcinoma cell line growth inhibition [GQUAD]
Conditions: spheroids with HUVEC and MSC; for pIC50: curve of first compound; for viability, T/C: stronger effect = lower value
In short: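 Viability of tumor cells grown as complex spheroids with endothelial and stromal cells, exposed to drug combinations. Top concentration at or near clinical Cmax (else 10 microM), diluted in half-log increments.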

[1] = second compound 0.0316 µM, first compound 0.0316 µM
[2] = second compound 0.0316 µM, first compound 0.1 µM
[3] = second compound 0.0316 µM, first compound 0.316 µM
[4] = second compound 0.0316 µM, first compound 1 µM
[5] = second compound 0.0316 µM, first compound 3.16 µM
[6] = second compound 0.0316 µM, first compound 10 µM
[7] = second compound 0.1 µM, first compound 0.0316 µM
[8] = second compound 0.1 µM, first compound 0.1 µM
[9] = second compound 0.1 µM, first compound 0.316 µM
[10] = second compound 0.1 µM, first compound 1 µM
[11] = second compound 0.1 µM, first compound 3.16 µM
[12] = second compound 0.1 µM, first compound 10 µM
[13] = second compound 0.316 µM, first compound 0.0316 µM
[14] = second compound 0.316 µM, first compound 0.1 µM
[15] = second compound 0.316 µM, first compound 0.316 µM
[16] = second compound 0.316 µM, first compound 1 µM
[17] = second compound 0.316 µM, first compound 3.16 µM
[18] = second compound 0.316 µM, first compound 10 µM
[19] = second compound 1 µM, first compound 0.0316 µM
[20] = second compound 1 µM, first compound 0.1 µM
[21] = second compound 1 µM, first compound 0.316 µM
[22] = second compound 1 µM, first compound 1 µM
[23] = second compound 1 µM, first compound 3.16 µM
[24] = second compound 1 µM, first compound 10 µM
[25] = second compound 3.16 µM, first compound 0.0316 µM
[26] = second compound 3.16 µM, first compound 0.1 µM
[27] = second compound 3.16 µM, first compound 0.316 µM
[28] = second compound 3.16 µM, first compound 1 µM
[29] = second compound 3.16 µM, first compound 3.16 µM
[30] = second compound 3.16 µM, first compound 10 µM
[31] = second compound 10 µM, first compound 0.0316 µM
[32] = second compound 10 µM, first compound 0.1 µM
[33] = second compound 10 µM, first compound 0.316 µM
[34] = second compound 10 µM, first compound 1 µM
[35] = second compound 10 µM, first compound 3.16 µM
[36] = second compound 10 µM, first compound 10 µM
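Further: spheroids exposed to compounds for seven days.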
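Wherever viability, T/C is given: 100% = DMSO vehicle control viability.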

`C=CCn1c(=O)c2cnc(Nc3ccc(N4CCN(C)CC4)cc3)nc2n1-c1cccc(C(C)(C)O)n1` + CN(C)c1ccc(Nc2c3ccc(NC(=O)CCN4CCCC4)cc3nc3cc(NC(=O)CCN4CCCC4)ccc23)cc1 showed a pIC50 (second compound 0.0316 µM) of 6.36, a pIC50 (second compound 0.1 µM) of 6.46 and a pIC50 (second compound 0.316 µM) of 6.40. The pIC50 (second compound 1 µM) was 6.44, the pIC50 (second compound 3.16 µM) was 6.37 and the pIC50 (second compound 10 µM) was 6.37. The viability, T/C [1] was 109%, the viability, T/C [2] was 89.4% and the viability, T/C [3] was 65.3%. For the same compound, the viability, T/C [4] was 16.2%, the viability, T/C [5] was 7.05% and the viability, T/C [6] was 8.82%. The viability, T/C [7] was 108%, the viability, T/C [8] was 98.7% and the viability, T/C [9] was 51.8%. For the same compound, the viability, T/C [10] was 19.7%, the viability, T/C [11] was 6.15% and the viability, T/C [12] was 9.87%. For the same compound, the viability, T/C [13] was 99.4%, the viability, T/C [14] was 90.7% and the viability, T/C [15] was 59.2%. For the same compound, the viability, T/C [16] was 15.8%, the viability, T/C [17] was 6.5% and the viability, T/C [18] was 9.33%. The viability, T/C [19] was 82.9%, the viability, T/C [20] was 89.5% and the viability, T/C [21] was 55.6%. The viability, T/C [22] was 11.3%, the viability, T/C [23] was 7.68% and the viability, T/C [24] was 9.81%. It also gave a viability, T/C [25] of 85.2%, a viability, T/C [26] of 83.2% and a viability, T/C [27] of 61.9%. For the same compound, the viability, T/C [28] was 14.7%, the viability, T/C [29] was 8.4% and the viability, T/C [30] was 12.1%. It also gave a viability, T/C [31] of 71.4%, a viability, T/C [32] of 78.3% and a viability, T/C [33] of 57.8%. It also gave a viability, T/C [34] of 25.7%, a viability, T/C [35] of 11.2% and a viability, T/C [36] of 10.8%.
Compound `CC(C)(O)C1CCC(Nc2ccc3ncc(-c4cccc(C(F)(F)F)c4)n3n2)CC1` (stereo unspecified) + CN(C)c1ccc(Nc2c3ccc(NC(=O)CCN4CCCC4)cc3nc3cc(NC(=O)CCN4CCCC4)ccc23)cc1 has a pIC50 (second compound 0.0316 µM) of 5.75, a pIC50 (second compound 0.1 µM) of 5.76 and a pIC50 (second compound 0.316 µM) of 5.81. The pIC50 (second compound 1 µM) was 5.90, the pIC50 (second compound 3.16 µM) was 6.13 and the pIC50 (second compound 10 µM) was 6.09. The viability, T/C [1] was 108%, the viability, T/C [2] was 101% and the viability, T/C [3] was 94.8%. For the same compound, the viability, T/C [4] was 77%, the viability, T/C [5] was 17.3% and the viability, T/C [6] was 29.5%. It also gave a viability, T/C [7] of 93.8%, a viability, T/C [8] of 90.3% and a viability, T/C [9] of 102%. For the same compound, the viability, T/C [10] was 72.6%, the viability, T/C [11] was 15.6% and the viability, T/C [12] was 34.5%. For the same compound, the viability, T/C [13] was 95.3%, the viability, T/C [14] was 90.3% and the viability, T/C [15] was 83.9%. The viability, T/C [16] was 62.9%, the viability, T/C [17] was 23.3% and the viability, T/C [18] was 33.2%. It also gave a viability, T/C [19] of 87.9%, a viability, T/C [20] of 92% and a viability, T/C [21] of 84.5%. It also gave a viability, T/C [22] of 55.8%, a viability, T/C [23] of 22.6% and a viability, T/C [24] of 30.5%. For the same compound, the viability, T/C [25] was 85.8%, the viability, T/C [26] was 82.7% and the viability, T/C [27] was 80.2%. It also gave a viability, T/C [28] of 39.4%, a viability, T/C [29] of 22.6% and a viability, T/C [30] of 31.6%. For the same compound, the viability, T/C [31] was 62.3%, the viability, T/C [32] was 64.8% and the viability, T/C [33] was 55%. It also gave a viability, T/C [34] of 48.1%, a viability, T/C [35] of 12.1% and a viability, T/C [36] of 10.4%.
`COc1ncnc(C2CC2)c1-c1ncc2cnn(Cc3ccc(-c4nc(C(F)(F)F)cn4C(C)C)cc3)c2n1` + CN(C)c1ccc(Nc2c3ccc(NC(=O)CCN4CCCC4)cc3nc3cc(NC(=O)CCN4CCCC4)ccc23)cc1 was tested, and the pIC50 (second compound 0.0316 µM) was < 5.00, the pIC50 (second compound 0.1 µM) was < 5.00 and the pIC50 (second compound 0.316 µM) was < 5.00. The pIC50 (second compound 1 µM) was < 5.00, the pIC50 (second compound 3.16 µM) was < 5.00 and the pIC50 (second compound 10 µM) was < 5.00. The viability, T/C [1] was 104%, the viability, T/C [2] was 113% and the viability, T/C [3] was 97.6%. It also gave a viability, T/C [4] of 102%, a viability, T/C [5] of 99.5% and a viability, T/C [6] of 102%. The viability, T/C [7] was 102%, the viability, T/C [8] was 114% and the viability, T/C [9] was 114%. For the same compound, the viability, T/C [10] was 108%, the viability, T/C [11] was 84.8% and the viability, T/C [12] was 95.4%. It also gave a viability, T/C [13] of 94.2%, a viability, T/C [14] of 104% and a viability, T/C [15] of 102%. The viability, T/C [16] was 101%, the viability, T/C [17] was 91.6% and the viability, T/C [18] was 90.6%. For the same compound, the viability, T/C [19] was 96.3%, the viability, T/C [20] was 96.2% and the viability, T/C [21] was 101%. It also gave a viability, T/C [22] of 106%, a viability, T/C [23] of 94.2% and a viability, T/C [24] of 97.1%. The viability, T/C [25] was 86.2%, the viability, T/C [26] was 91.6% and the viability, T/C [27] was 105%. The viability, T/C [28] was 87%, the viability, T/C [29] was 93.5% and the viability, T/C [30] was 78.5%. For the same compound, the viability, T/C [31] was 71%, the viability, T/C [32] was 69.4% and the viability, T/C [33] was 77.2%. The viability, T/C [34] was 66.5%, the viability, T/C [35] was 61.9% and the viability, T/C [36] was 50.8%.
